Tests used:
rat = conditions: rats
Protocol: The acute toxicity of the prodrug compounds and parent compounds are measured by LD50 of rat.

mice = assay: Analgesic activity, acetic acid writhing; type: in vivo; conditions: 30 min before acetic acid
Protocol: The prodrug compounds are administered either transdermally or orally. The parent compounds are administered orally. The number of writhing that occurred when mice are administered the acetic acid solution are counted, and the rate of inhibition based on the control group which was not pretreated with any test compounds is calculated. […] The A group is the control group.

rats [1] = assay: Antipyretic activity, E. coli suspension as pyrogen; type: in vivo; conditions: in °C (unit assumed)
Protocol: Rats are administered with sterilized E. coli suspension as a pyrogen. Each group of rats are administered with a prodrug compounds or parent compounds at a dosage specified below. The prodrug compounds are administered either orally or transdermally. The parent compounds are administered orally.

[2] = Plasma levels after transdermal administration to hairless mice; type: in vivo; conditions: mouse, in vivo
Protocol: Tested compounds (20% solution or suspension in 1 mL isopropanol) are administered transdermally to the skin of intact hairless mice. The plasma levels of the parent compounds are determined by HPLC.

sun damaged skin = assay: Treatment of sun damaged skin of subjects; type: in vivo; conditions: applied to sun damaged skin
Text: Diethylaminoethyl acetylsalicylate.AcOH is applied to subjects' the sun damaged skin. […] 92% of the subjects treated experienced improved elasticity and firmness, and 95% experienced overall improvement in texture and tone. The results shown that HPPs of aspirin and related compounds may be used to treat skin conditions.

human skin tissue = conditions: pH 7.4
[3] = pH 7
[4] = test system: spontaneously hypertensive and stroke prone rats (SLAC/SHRSP); assay: Anti-stroke activity, carotid thrombosis by electrical stimulation (treated before operation); type: in vivo, rat; conditions: 100 mg/kg transdermally 2 hour before and 1 hour after operation, then 50 mg/kg twice per day
Protocol: (§1) Thrombosis was induced by electrical stimulation (1 mA for 3 minutes) of the carotid artery in spontaneously hypertensive and stroke prone rats (SLAC/SHRSP) by using a thrombosis formation instrument (YLS-14A, Shandong Academy of Medical Sciences, Shandong, China). The rats (Spragu Dawley, 25 weeks old, 380-450 g) were divided into 3 groups randomly, group A is the control group, groups B and C are aspirinamine-treated group. In group B, 100 mg/kg of aspirinamine citric acid salt (10% in water) was applied to the rats' back skin (˜5 cm^2, fur was cut off) 2 hour before the operation and 1 hour after the operation, then 50 mg/kg of the drug was applied to the back of rats twice per day. In group C, 50 mg/kg of aspirinamine was applied to the back of rats twice per day starting from 24 hours after the operation. The recovery of motor functions of rats was evaluated every day. The operation process is outlined in the Method section in the supporting online materials. […] The HPP of aspirin is the first drug which can reverses paralysis from post-stroke.

C57/BL6 mice, MPTP [5] = assay: MPTP Parkinson's disease mice: GABA and Glu in substantia nigra and striatum
Protocol: Group A mice were i.p. injected 0.4% sodium carboxymethylcellulos (15 ml/kg per day) for 7 days. Group B and C mice were i.p. injected N-methyl-4-phenyl-1,2,3,6-tetrahydropyridine (MPTP, 30 mg/kg per day) for 7 days. The mice were divided into 2 groups. […] All mice were killed after the last treatment and the brain tissues were quickly frozen at −80° C. […] The contents of GABA and Glu in the striatum and SN were shown by high performance amino acid auto-analyser.

[6] = test system: spontaneously hypertensive and stroke prone rats (SLAC/SHRSP); assay: Alleviation of the effects of strokes (treatment from 24 hours after operation); type: in vivo, rat; conditions: 50 mg/kg twice per day on the back from 24 hours after the operation
Protocol: as §1

C57/BL6 mice, MPTP [7] = assay: MPTP Parkinson's disease mice: GSH and MDA in the substantia nigra; type: in vivo, mouse; conditions: MPTP + 30 mg/kg transdermally 14 days
Text: (§2) The mice were divided into 2 groups.

C57/BL6 mice, MPTP [8] = assay: MPTP Parkinson's disease mice: DA, NA, 5-HT in the striatum; type: in vivo, mouse
Text: as §2

rats [9] = assay: Spinal cord injury, recovery from paralysis; type: in vivo, rat; conditions: 5 mg in 0.2 ml water on the area of injury twice per day for 1 months
Protocol: A group of rat was anesthetized with chloral hydrate, the spinal cord of rats was hit to induce spinal cord injury. At the next day, 20 completely paralyzed rats were divided into 2 groups. […] In group B (n=10), 5 mg of diethylaminopropyl acetylsalicylate.HCl in 0.2 ml of pure water was applied to the area of injury (˜2×3 cm^2) twice per day for 1 months. After the treatment, all rats (10/10) in control group (group A) were still completely paralyzed. We were excited to see that all rats (10/10) in the diethylaminopropyl acetylsalicylate.HCl treated group (group B) could walk. 4 Rats of them were completely normal and other 6 rats walked more slowly and less confidently than their injury. This therapeutic approach can treat spinal cord injury in humans and animals.

β-amyloid (Aβ) = assay: Tg2576 mouse model of Alzheimer disease: Aβ and senile plaques; type: in vivo
Text: For many years, efforts have been focused on the development of inhibitors of β-amyloid (Aβ) formation and its related neurotoxic effects. To determine the effect of diethylaminopropyl acetylsalicylate. HCl on in vivo Aβ accumulation, we administered transdermally diethylaminopropyl acetylsalicylate. […] Three-month-old female transgenic mice overexpressing the human APP gene containing the Swedish mutation that causes familial AD (Tg2576 line) were used for testing the effects of diethylaminopropyl acetylsalicylate.HCl in vivo. 20 Tg2576 mice were divided into 2 groups. […] In group B (n=10), 50 mg/kg of diethylaminopropyl acetylsalicylate.HCl in 0.2 ml of pure water was applied to the back of mouse once per day for 2 months. Then the animals were killed and their brains were removed for analysis. For Aβ analysis, hemibrains were dounce homogenized in 70% formic acid at 150 mg tissue/ml formic acid solution. Homogenates were transferred to a chilled ultracentrifuge and were then spun at 100,000 g for 1 h at 4° C. Supernatants were collected and neutralized with formic acid neutralization buffer (1.0 M Tris base, 0.5 M NaH2PO4, and 0.05% NaN3; 1:20) for Aβ quantitation by ELISA. Aβ40 and Aβ42 were assayed by ELISA. Four individual experiments were performed. To compare across studies, the values for an individual study were normalized using the values obtained for the control animals included in each study. Values represent the mean±SE for the n number shown, after normalizing.

Tg2576 mouse = assay: Tg2576 mice: radial-arm water-maze test of working memory; type: in vivo; conditions: 50 mg/kg, 2 months
Protocol: To determine if the transdermal administration of diethylaminopropyl acetylsalicylate.HCl has beneficial functional consequences, we tested 2 months of diethylaminopropyl acetylsalicylate.HCl (50 mg/kg) in the transgenic model for Alzheimer's disease in which mice develop learning deficits as amyloid accumulates. […] In the diethylaminopropyl acetylsalicylate.HCl (50 mg/kg) treated group, all mice performed superbly on the radial-arm water-maze test of working memory and untreated transgenic mice show memory deficits. […] This therapeutic approach can thus prevent and treat Alzheimer's dementia.

[10] = MPTP mice, 30 mg/kg transdermally once per day for 14 days
[11] = MPTP mice, 30 mg/kg transdermally to the neck once per day for 14 days
[12] = 50 mg/kg transdermally, 2 months
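Wherever LD50 of HPP is given: acute toxicity in rats expressed as LD50, determined for both prodrugs and their parent compounds.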

## CCN(CC)CCOC(=O)c1ccccc1OC(C)=O [diethylaminoethyl acetylsalicylate.AcOH]
rat
  LD50 of HPP: 2300 mg/kg
mice; 50 mg/kg orally
  % (rate of writhing inhibition): 54%
  No. of Writhing: 15.4
mice; 50 mg/kg transdermally
  % (rate of writhing inhibition): 56%
  No. of Writhing: 14.5
mice; 100 mg/kg orally
  % (rate of writhing inhibition): 67%
  No. of Writhing: 11.0
mice; 100 mg/kg transdermally
  % (rate of writhing inhibition): 70%
  No. of Writhing: 10.1
Rats [1]; 100 mg/kg orally
  body temperature, t = 0 min: 37.25 ± 0.09
  body temperature, t = 90 min: 36.40 ± 0.15
  body temperature, t = 180 min: 36.50 ± 0.09
  body temperature, t = 270 min: 36.40 ± 0.15
Rats [1]; 100 mg/kg transdermally
  body temperature, t = 0 min: 37.19 ± 0.07
  body temperature, t = 90 min: 36.40 ± 0.05
  body temperature, t = 180 min: 36.38 ± 0.05
  body temperature, t = 270 min: 36.40 ± 0.15
Rats [1]; 150 mg/kg orally
  body temperature, t = 0 min: 37.18 ± 0.07
  body temperature, t = 90 min: 36.30 ± 0.15
  body temperature, t = 180 min: 36.28 ± 0.07
  body temperature, t = 270 min: 36.20 ± 0.09
Rats [1]; 150 mg/kg transdermally
  body temperature, t = 0 min: 37.33 ± 0.05
  body temperature, t = 90 min: 36.27 ± 0.15
  body temperature, t = 180 min: 36.26 ± 0.07
  body temperature, t = 270 min: 36.22 ± 0.08
[2]
  Peak plasma concentration of parent compound after prodrug compound: 30 mg/L
  t, time to peak plasma level of parent compound after prodrug compound: 20 min
Sun damaged skin
  reduction in roughness: 89%
  reduction in the appearance of fine lines and wrinkles: 85%
  reduction in the look of freckles, moles, dark spots, and other discolorations: 85%
  reduction of acne: 97%
  subjects that experienced overall improvement in texture and tone: 95%
  subjects treated that experienced improved elasticity and firmness: 92%
Human skin tissue
  In vitro penetration rate (apparent flux), prodrug compounds: 1000 μg/cm^2/h
[3]
  Solubility of HPP: >300 mg/mL

## CCN(CC)CCOC(=O)c1ccccc1OC(C)=O.O=C(O)CC(O)(CC(=O)O)C(=O)O [diethylaminoethyl acetylsalicylate.citric acid]
[4]
  Stroke-free rats (2 hours): 8/10
  Stroke-free rats (1 day): 9/10
  Stroke-free rats (7 days): 10/10
C57/BL6 mice, MPTP [5]; 30 mg/kg
  MPTP-induced changes of GABA in striatum and SN: reversed
C57/BL6 mice, MPTP [5]; [10]
  GABA concentration, Striatum: 4.9 ± 1.6 μmol/g wet tissue
  GABA concentration, Substantia nigra: 4.7 ± 0.5 μmol/g wet tissue
  Glu concentration, Striatum: 26.5 ± 2.7
  Glu concentration, Substantia nigra: 29.5 ± 2.4
[6]; 3 hrs after operation (before treatment start)
  Stroke-free rats (3 hrs): 0/10
[6]; 2 day
  Stroke-free rats (2 day): 4/10
[6]; 3 days
  Weight Loss (3 days): −13 +/− 7%
[6]; 7 day
  Stroke-free rats (7 day): 9/10
[6]; 7 days
  Weight Loss (7 days): −7 +/− 4%
[6]; 14 days
  Stroke-free rats (14 days): 10/10
  Weight Loss (14 days): −4 +/− 2%
C57/BL6 mice, MPTP [7]; control 13 ± 3, MPTP + water 21 ± 4
  MDA in the substantia nigra: 14 ± 4 μmol/g protein
C57/BL6 mice, MPTP [7]; control 152 ± 12, MPTP + water 101 ± 17
  GSH in the substantia nigra: 143 ± 13 μg/g protein
C57/BL6 mice, MPTP [8]; 30 mg/kg transdermally, vs MPTP model group, P<0.05
  DA, NA, and 5-HT contents in the striatum: increased
C57/BL6 mice, MPTP [8]; [11]
  5-HT concentration in the striatum: 302 ± 29
  DA concentration in the striatum: 817 ± 89 μg/g wet tissue
  NA concentration in the striatum: 602 ± 55

## CCN(CC)CCCOC(=O)c1ccccc1OC(C)=O.Cl [diethylaminopropyl acetylsalicylate.HCl]
Rats [9]
  rats completely normal after treatment: 4
  rats that could walk after treatment: 10/10
β-amyloid (Aβ); 50 mg/kg transdermally over 2 months
  reduction in the number of senile plaques: 70-80%
β-amyloid (Aβ); [12]
  reduction in Aβ42 concentration in the brain: 70%
  reduction of the amount of Aβ detected in the brains: 70%
β-amyloid (Aβ); Tg2576 mice, 50 mg/kg transdermally once per day for 2 months
  Aß42 concentration: 2.3 ± 0.3 pmol/g tissue
Tg2576 mouse
  cognitive performance, radial-arm water-maze test of working memory: performed as well as nontransgenic mice
